pIC50: −log10 of the molar value. Like-named read-outs stand apart in the source and are kept apart here.

We go through 23 compounds from patent US20230286969A1, “AROMATIC SPIRO RING AMIDE DERIVATIVES FOR THE TREATMENT AND PROPHYLAXIS OF HEPATITIS B VIRUS INFECTION” (Hoffmann-La Roche Inc., priority 2020, published 2023).

What all share (type): cell-based
Series [1] deals with HBeAg. In words: PHH HBV natural infection assay, HBeAg (alphalisa). The method in brief:
(§1)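 Primary human hepatocytes infected with HBV at 200 GE/cell plus 4% PEG8000 for 24 h, then sandwich-cultured 72 h. Compounds were added in two refreshes 72 h apart. HBsAg and HBeAg in supernatant measured by AlphaLISA.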
In general terms: Bead proximity is the source of the signal in Alpha formats.

Series [2] concerns primary human hepatocyte (PHH). Briefly: PHH natural infection assay, cytotoxicity (Cell Counting Kit-8). The settings on record: HBV-infected primary human hepatocytes, CCK8, end of treatment. The method in brief:
(§2)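 HBV-infected at 200 GE/cell with 4% PEG8000 for 24 h, then sandwich-cultured 72 h in 1% DMSO and 0.25 mg/mL matrix gel. Compound added twice at 72-h intervals; supernatant HBsAg and HBeAg read by AlphaLISA, HBV DNA by quantitative fluorescence PCR kit. Cytotoxicity by CCK-8.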
A general note: Tetrazolium dyes change colour on reduction, which living cells bring about.

Series [3] deals with HBsAg. In words: PHH HBV natural infection assay, HBsAg (alphalisa). A digest of the protocol: as §1
Series [4] in a line: PHH natural infection assay, cytotoxicity (Cell Counting Kit-8). The settings on record: human, HBV-infected primary human hepatocytes, CCK8, end of treatment. A digest of the protocol: as §2
[5] abbreviates: read-out: HbeAg IC50, HBV-infected primary human hepatocytes, supernatant, compound medium refreshed two times with 72-hour interval.
Setting [6] is: read-out: HBsAg IC50, HBV-infected primary human hepatocytes, supernatant, compound medium refreshed two times with 72-hour interval.
[7] abbreviates: Hepatitis B virus, Hepatocyte, 72 h, read-out: HbeAg IC50, HBV-infected primary human hepatocytes, supernatant, compound medium refreshed two times with 72-hour interval.
The mark [8] stands for this setting: Hepatitis B virus, Hepatocyte, 72 h, read-out: HBsAg IC50, HBV-infected primary human hepatocytes, supernatant, compound medium refreshed two times with 72-hour interval.

Regarding `CS(=N)(=O)c1ccc(C(=O)NC2CC3(C2)CC(c2nc4cc(Cl)ccc4o2)C3)o1` (single isomer, unassigned) [Example 52-c, N-[6-(5-chloro-1,3-benzoxazol-2-yl)spiro[3.3]heptan-2-yl]-5-(methylsulfonimidoyl)furan-2-carboxamide], the results for the negative-log IC50 (pIC50) in series [1] (setting [5]) and in series [3] (setting [6]) were 5.44 and 5.30, respectively. In addition, the half-maximal cytotoxic concentration (CC50) (in general, the concentration at which the toxic effect on the cells reaches its halfway point) in series [2] was above 100 µM.
The matching figures for `N=S(=O)(CC1CC1)c1ccc(C(=O)NC2CC3(C2)CC(c2nc4cc(Cl)ccc4o2)C3)o1` (single isomer, unassigned) [Example 54-d, N-[6-(5-chloro-1,3-benzoxazol-2-yl)spiro[3.3]heptan-2-yl]-5-(cyclopropylmethylsulfonimidoyl)furan-2-carboxamide]: 6.16, 6.15 and above 10 µM.
As to `[H][C@]1(NC(=O)c2ccc(S(C)(=O)=O)o2)C[C@]2(C1)C[C@]([H])(c1nc3cc(Cl)ccc3o1)C2` (single isomer, unassigned) [Example 15-b, (Ra)—N-[6-(5-chloro-1,3-benzoxazol-2-yl)spiro[3.3]heptan-2-yl]-5-methylsulfonyl-furan-2-carboxamide], the pIC50 (usually −log10 of the IC50, conventionally taken in molar units) in series [1] (setting [5]) was 6.16; in series [3] (setting [6]), 6.05. The compound further showed a half-maximal cytotoxic concentration (CC50) at 144 h in series [4] of 35.8 µM.
`CC(C)S(=O)(=O)Cc1ccc(C(=O)NC2CC3(C2)CC(c2nc4cc(Cl)ccc4o2)C3)o1` (stereo not shown) [Example 44, N-[6-(5-chloro-1,3-benzoxazol-2-yl)spiro[3.3]heptan-2-yl]-5-(isopropylsulfonylmethyl)furan-2-carboxamide]: the negative logarithm of the IC50 (pIC50) in series [1] (setting [7]) was 5.81; in series [3] (setting [8]) it was 5.74. In series [4], the CC50 at 144 h amounted to 95.8 µM.
For the compound `O=C(NC1CC2(C1)CC(c1nc3cc(Cl)ccc3o1)C2)c1ccc(S(=O)(=O)CC2CCC2)o1` (stereo not shown) [Example 23, N-[6-(5-chloro-1,3-benzoxazol-2-yl)spiro[3.3]heptan-2-yl]-5-(cyclobutylmethylsulfonyl)furan-2-carboxamide], the values for the pIC50 in series [1] (setting [7]) and in series [3] (setting [8]) were 6.05 and 6.49, respectively. Besides, in series [4], the CC50 at 144 h was above 100 µM.
The matching figures for `CS(=O)(=O)c1ccc(C(=O)NC2CC3(C2)CC(c2nc4cc(Cl)cnc4o2)C3)o1` (stereo not shown) [Example 48, N-[6-(6-chlorooxazolo[5,4-b]pyridin-2-yl)spiro[3.3]heptan-2-yl]-5-methylsulfonyl-furan-2-carboxamide]: 5.74, 5.62 and above 100 µM.
The matching figures for `O=C(NC1CC2(C1)CC(c1nc3cc(Cl)ccc3o1)C2)c1ccc(Cl)o1` (stereo not shown) [Example 6, 5-chloro-N-[6-(5-chloro-1,3-benzoxazol-2-yl)spiro[3.3]heptan-2-yl]furan-2-carboxamide]: 5.68, 5.56 and above 100 µM.
For `N=S(=O)(Cc1ccc(C(=O)NC2CC3(C2)CC(c2nc4cc(Cl)ccc4o2)C3)o1)C1CC1` (stereo not shown) [Example 60, N-[6-(5-chloro-1,3-benzoxazol-2-yl)spiro[3.3]heptan-2-yl]-5-[(cyclopropylsulfonimidoyl)methyl]furan-2-carboxamide], the pIC50 in series [1] (setting [7]) was 5.72; in series [3] (setting [8]) it was 5.71. Moreover, in series [4], the CC50 at 144 h is above 100 µM.
Take `CN(C)S(=O)(=O)c1ccc(C(=O)NC2CC3(C2)CC(c2nc4cc(Cl)ccc4o2)C3)o1` (stereo not shown) [Example 89, N-[6-(5-chloro-1,3-benzoxazol-2-yl)spiro[3.3]heptan-2-yl]-5-(dimethylsulfamoyl)furan-2-carboxamide]: the negative logarithm of the IC50 (pIC50) is 6.14 in series [1] (setting [7]) and 5.98 in series [3] (setting [8]). The compound also yielded a cytotoxic concentration (CC50) at 144 h in series [4] above 10 µM.
The matching figures for `N=S(=O)(CC1CC(F)(F)C1)c1ccc(C(=O)NC2CC3(C2)CC(c2nc4cc(Cl)ccc4o2)C3)o1` (stereo not shown) [Example 57, N-[6-(5-chloro-1,3-benzoxazol-2-yl)spiro[3.3]heptan-2-yl]-5-[(3,3-difluorocyclobutyl)methylsulfonimidoyl]furan-2-carboxamide]: 6.12, 6.05 and 81.9 µM.
On the same counts, the results for `CC(C)C(=O)NS(=O)(=O)c1ccc(C(=O)N[C@H]2CC3(C2)C[C@H](c2nc4cc(Cl)ccc4o2)C3)o1` (single isomer, unassigned) [Example 70, (Sa)—N-[6-(5-chloro-1,3-benzoxazol-2-yl)spiro[3.3]heptan-2-yl]-5-(2-methylpropanoylsulfamoyl)furan-2-carboxamide, or (Ra)—N-[6-(5-chloro-1,3-benzoxazol-2-yl)spiro[3.3]heptan-2-yl]-5-(2-methylpropanoylsulfamoyl)furan-2-carboxamide] are 6.42, 6.44 and above 100 µM.
On the same counts, the results for `CCCC(=O)NS(=O)(=O)c1ccc(C(=O)N[C@H]2CC3(C2)C[C@H](c2nc4cc(Cl)ccc4o2)C3)o1` (stereo partly shown) [Example 69] are 6.65, 6.48 and above 100 µM.
For `O=C(NC1CC2(C1)CC(c1nc3cc(Cl)ccc3o1)C2)c1ccc(S2(=O)=NCCC2)o1` (stereo not shown) [Example 61, N-[6-(5-chloro-1,3-benzoxazol-2-yl)spiro[3.3]heptan-2-yl]-5-(1-oxo-4,5-dihydro-3H-isothiazol-1-yl)furan-2-carboxamide], the pIC50 in series [1] (setting [7]) is 5.50; in series [3] (setting [8]), 5.44. In series [4], this compound gave a CC50 at 144 h above 100 µM.
The matching figures for `O=C(NC1CC2(C1)CC(c1nc3cc(Cl)ccc3o1)C2)c1ccc(S(=O)(=O)CC2CC2)o1` (stereo not shown) [Example 20, N-[6-(5-chloro-1,3-benzoxazol-2-yl)spiro[3.3]heptan-2-yl]-5-(cyclopropylmethylsulfonyl)furan-2-carboxamide]: 6.74, 6.35 and 89.2 µM.
For `O=C(NC1CC2(C1)CC(c1nc3cc(Cl)ccc3o1)C2)c1ccc(S(=O)(=O)C2COC2)o1` (stereo not shown) [Example 18, N-[6-(5-chloro-1,3-benzoxazol-2-yl)spiro[3.3]heptan-2-yl]-5-(oxetan-3-ylsulfonyl)furan-2-carboxamide], the pIC50 in series [1] (setting [7]) was 5.74; in series [3] (setting [8]), 5.48. In addition, the CC50 at 144 h in series [4] stood at 72.1 µM.
On the same counts, the results for `N=S(=O)(c1ccc(C(=O)NC2CC3(C2)CC(c2nc4cc(Cl)ccc4o2)C3)o1)N1CCCC1` (stereo not shown) [Example 66, N-[6-(5-chloro-1,3-benzoxazol-2-yl)spiro[3.3]heptan-2-yl]-5-(pyrrolidin-1-ylsulfonimidoyl)furan-2-carboxamide] are 5.42, 5.09 and above 10 µM.
The matching figures for `CC(C)CS(=N)(=O)c1ccc(C(=O)NC2CC3(C2)CC(c2nc4cc(Cl)ccc4o2)C3)o1` (stereo not shown) [Example 55, N-[6-(5-chloro-1,3-benzoxazol-2-yl)spiro[3.3]heptan-2-yl]-5-(isobutylsulfonimidoyl)furan-2-carboxamide]: 6.01, 6.10 and 83.3 µM.
On the same counts, the results for `CCS(=N)(=O)Cc1ccc(C(=O)NC2CC3(C2)CC(c2nc4cc(Cl)ccc4o2)C3)o1` (stereo not shown) [Example 58, N-[6-(5-chloro-1,3-benzoxazol-2-yl)spiro[3.3]heptan-2-yl]-5-[(ethylsulfonimidoyl)methyl]furan-2-carboxamide] are 5.23, 5.06 and above 100 µM.
Regarding `CN1CC(CS(=O)(=O)c2ccc(C(=O)NC3CC4(C3)CC(c3nc5cc(Cl)ccc5o3)C4)o2)C1` (stereo not shown) [Example 25, N-[6-(5-chloro-1,3-benzoxazol-2-yl)spiro[3.3]heptan-2-yl]-5-[(1-methylazetidin-3-yl)methylsulfonyl]furan-2-carboxamide], the values for the pIC50 in series [1] (setting [7]) and in series [3] (setting [8]) were 5.43 and 5.38, respectively. The same compound registered a CC50 at 144 h in series [4] above 10 µM.
On to `O=C(NC1CC2(C1)CC(c1nc3cc(Cl)ccc3o1)C2)c1ccc(Br)o1` (stereo not shown) [Example 3, 5-bromo-N-[6-(5-chloro-1,3-benzoxazol-2-yl)spiro[3.3]heptan-2-yl]furan-2-carboxamide], for which the pIC50 in series [1] (setting [7]) was 5.12; in series [3] (setting [8]) it was 5.01. This compound registered a 50% cytotoxic concentration (CC50) at 144 h in series [4] of 96.2 µM.
The matching figures for `O=C(NC1CC2(C1)CC(c1nc3cc(Cl)ccc3o1)C2)c1occc1Br` (stereo not shown) [Example 5, 3-bromo-N-[6-(5-chloro-1,3-benzoxazol-2-yl)spiro[3.3]heptan-2-yl]furan-2-carboxamide]: 5.20, 5.09 and 73.2 µM.
On the same counts, the results for `[H][C@]1(NC(=O)c2ccc([S@](=N)(=O)C3CC3)o2)C[C@]2(C1)C[C@]([H])(c1nc3cc(Cl)ccc3o1)C2` (stereo partly drawn) [Example 53-c, (Ra)—N-[6-(5-chloro-1,3-benzoxazol-2-yl)spiro[3.3]heptan-2-yl]-5-[(R)-cyclopropylsulfonimidoyl]furan-2-carboxamide] are 6.21, 6.19 and 91.9 µM.
For `N=S(=O)(c1ccc(C(=O)NC2CC3(C2)CC(c2nc4cc(Cl)cnc4o2)C3)o1)C1CC1` (single isomer, unassigned) [Example 64-d, N-[6-(6-chlorooxazolo[5,4-b]pyridin-2-yl)spiro[3.3]heptan-2-yl]-5-(cyclopropylsulfonimidoyl)furan-2-carboxamide], in series [2], the 50% cytotoxic concentration (CC50) is above 10 µM.
